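Each compound was tested at five concentrations against cells in 96-well plates for 48 hours. At the GI50, growth is halved. At the TGI there is no net growth.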
Legend:
Assay in all cases: inhibition of tumour cell growth, NCI panel, 48 h
NCI-H23 lung = tested on: NCI-H23 lung
NCI-H460 lung = tested on: NCI-H460 lung
NCI-H522 lung = tested on: NCI-H522 lung
NCI/ADR-RES ovarian = tested on: NCI/ADR-RES ovarian
OVCAR-3 ovarian = tested on: OVCAR-3 ovarian
OVCAR-4 ovarian = tested on: OVCAR-4 ovarian
OVCAR-5 ovarian = tested on: OVCAR-5 ovarian
OVCAR-8 ovarian = tested on: OVCAR-8 ovarian
PC-3 prostate = tested on: PC-3 prostate
RPMI-8226 leukemia = tested on: RPMI-8226 leukemia
RXF 393 renal = tested on: RXF 393 renal
SF-268 CNS = tested on: SF-268 CNS
SF-295 CNS = tested on: SF-295 CNS
SF-539 CNS = tested on: SF-539 CNS
SK-MEL-2 melanoma = tested on: SK-MEL-2 melanoma
SK-MEL-28 melanoma = tested on: SK-MEL-28 melanoma
SK-MEL-5 melanoma = tested on: SK-MEL-5 melanoma
SK-OV-3 ovarian = tested on: SK-OV-3 ovarian
SN12C renal = tested on: SN12C renal
SNB-19 CNS = tested on: SNB-19 CNS
SNB-75 CNS = tested on: SNB-75 CNS
SR leukemia = tested on: SR leukemia
SW-620 colon = tested on: SW-620 colon
T-47D breast = tested on: T-47D breast
TK-10 renal = tested on: TK-10 renal
U251 CNS = tested on: U251 CNS
UACC-257 melanoma = tested on: UACC-257 melanoma
UACC-62 melanoma = tested on: UACC-62 melanoma
UO-31 renal = tested on: UO-31 renal

**Q.** `COc1ccc(-c2ccc(/C=C/C(=O)NO)cc2)cc1` was tested. Which TGI (NCI-H23 lung) did it give?
**A.** 6180 nM

**Q.** And the GI50 (NCI-H460 lung)?
**A.** 142 nM

**Q.** And the TGI (NCI-H460 lung)?
**A.** 4460 nM

**Q.** And the GI50 (NCI-H522 lung)?
**A.** 801 nM

**Q.** And the TGI (NCI-H522 lung)?
**A.** 16400 nM

**Q.** What about the GI50 (NCI/ADR-RES ovarian) of the same molecule?
**A.** 533 nM

**Q.** What about the TGI (NCI/ADR-RES ovarian) of the same molecule?
**A.** 3220 nM

**Q.** What about the GI50 (OVCAR-3 ovarian) of the same molecule?
**A.** 518 nM

**Q.** What about the TGI (OVCAR-3 ovarian) of the same molecule?
**A.** 2760 nM

**Q.** And the GI50 (OVCAR-4 ovarian)?
**A.** 362 nM

**Q.** What about the TGI (OVCAR-4 ovarian) of the same molecule?
**A.** 4440 nM

**Q.** And the GI50 (OVCAR-5 ovarian)?
**A.** 1740 nM

**Q.** And the TGI (OVCAR-5 ovarian)?
**A.** 17700 nM

**Q.** What about the GI50 (OVCAR-8 ovarian) of the same molecule?
**A.** 896 nM

**Q.** What about the TGI (OVCAR-8 ovarian) of the same molecule?
**A.** 4620 nM

**Q.** And the GI50 (PC-3 prostate)?
**A.** 1090 nM

**Q.** And the TGI (PC-3 prostate)?
**A.** 12300 nM

**Q.** What about the GI50 (RPMI-8226 leukemia) of the same molecule?
**A.** 697 nM

**Q.** What about the TGI (RPMI-8226 leukemia) of the same molecule?
**A.** > 100000 nM

**Q.** What about the GI50 (RXF 393 renal) of the same molecule?
**A.** 554 nM

**Q.** And the TGI (RXF 393 renal)?
**A.** 3030 nM

**Q.** And the GI50 (SF-268 CNS)?
**A.** 982 nM

**Q.** And the TGI (SF-268 CNS)?
**A.** 5580 nM

**Q.** What about the GI50 (SF-295 CNS) of the same molecule?
**A.** 230 nM

**Q.** And the TGI (SF-295 CNS)?
**A.** 2010 nM

**Q.** And the GI50 (SF-539 CNS)?
**A.** 913 nM

**Q.** What about the TGI (SF-539 CNS) of the same molecule?
**A.** 5180 nM

**Q.** And the GI50 (SK-MEL-2 melanoma)?
**A.** 5110 nM

**Q.** And the TGI (SK-MEL-2 melanoma)?
**A.** 37600 nM

**Q.** And the GI50 (SK-MEL-28 melanoma)?
**A.** 2450 nM

**Q.** What about the TGI (SK-MEL-28 melanoma) of the same molecule?
**A.** 13000 nM

**Q.** What about the GI50 (SK-MEL-5 melanoma) of the same molecule?
**A.** 1100 nM

**Q.** What about the TGI (SK-MEL-5 melanoma) of the same molecule?
**A.** 3000 nM

**Q.** And the GI50 (SK-OV-3 ovarian)?
**A.** 1180 nM

**Q.** And the TGI (SK-OV-3 ovarian)?
**A.** 3210 nM

**Q.** And the GI50 (SN12C renal)?
**A.** 864 nM

**Q.** And the TGI (SN12C renal)?
**A.** 10900 nM

**Q.** And the GI50 (SNB-19 CNS)?
**A.** 2420 nM

**Q.** What about the TGI (SNB-19 CNS) of the same molecule?
**A.** 11400 nM

**Q.** What about the GI50 (SNB-75 CNS) of the same molecule?
**A.** 1380 nM

**Q.** What about the TGI (SNB-75 CNS) of the same molecule?
**A.** 5060 nM

**Q.** And the GI50 (SR leukemia)?
**A.** 378 nM

**Q.** And the TGI (SR leukemia)?
**A.** > 20600 nM

**Q.** And the GI50 (SW-620 colon)?
**A.** 754 nM

**Q.** And the TGI (SW-620 colon)?
**A.** > 100000 nM

**Q.** What about the GI50 (T-47D breast) of the same molecule?
**A.** 1470 nM

**Q.** And the TGI (T-47D breast)?
**A.** 5580 nM

**Q.** What about the GI50 (TK-10 renal) of the same molecule?
**A.** 1550 nM

**Q.** What about the TGI (TK-10 renal) of the same molecule?
**A.** 21300 nM

**Q.** And the GI50 (U251 CNS)?
**A.** 1140 nM

**Q.** What about the TGI (U251 CNS) of the same molecule?
**A.** 3080 nM

**Q.** And the GI50 (UACC-257 melanoma)?
**A.** 2130 nM

**Q.** And the TGI (UACC-257 melanoma)?
**A.** 13800 nM

**Q.** And the GI50 (UACC-62 melanoma)?
**A.** 1150 nM

**Q.** What about the TGI (UACC-62 melanoma) of the same molecule?
**A.** 3430 nM

**Q.** And the GI50 (UO-31 renal)?
**A.** 281 nM

**Q.** What about the TGI (UO-31 renal) of the same molecule?
**A.** 2140 nM

From PubChem BioAssay (NCI)
